The record followed here is patent publication US20080031955A1, “Product Comprising a Beta-Lactam Antibiotic” (priority 2004, published 2008).

Holding throughout (assay type): physicochemical
Data set [1] is described as follows: Water content (Karl Fisher) of the dried product. The following applies: after drying. The method, then:
The wet cake was fluidised with air at ambient temperature during 15 to 30 minutes, after which it was fluidised with warm air (30-40° C.) during 45 to 75 minutes (air flow 1800 m^3/hr), until the water content was 5.2 wt. % (Karl Fisher).
(product temperature 40° C.). The final pressure was 20 mbar. […] The water content was 5.2 wt. % (Karl Fisher).

Data set [2] can be described thus: Acetone content of the dried product by gas chromatography. The method, then:
The acetone content or concentration of organic solvent may be determined in any suitable manner, e.g. by gas chromatography.
The acetone content of the dried product was analysed using a Hewlett-Packard Gas Chromatograph, model 5890. As a sample solution was used a solution obtained by dissolving 0.500 g of product in 10.0 ml of water (with the aid of some drops of NaOH 1 N). As a standard (reference) solution was used a solution obtained by dissolving 0.5 g of acetone standard in 50.0 ml of water, from which 1.0 ml was taken and diluted with 50.0 ml water.

A short description of data set [3]: Color C400 measured at 400 nm (Ph. Eur.). The following applies: color measured at a wavelength of 400 nm. The source says:
In a preferred embodiment, the product according to the invention has a C400≦0.20, wherein C400 is the color measured at a wavelength of 400 nm (Ph.Eur.). Preferably, the product has a C400≦0.15, preferably a C400≦0.10.

Structures are written as SMILES.

Take `CC1=C(C(=O)O)N2C(=O)[C@@H](NC(=O)[C@H](N)c3ccccc3)[C@H]2SC1` [Comparative experiment A, cephalexin]: in data set [1], the “water content (Karl Fisher)” value is recorded as 5.2 wt. %. In addition, the Acetone content in data set [2] (dried cephalexin product) is 500 mg/kg; in data set [2] (dried product, fluid bed dryer), 500 mg of acetone per kg of cephalexin. In data set [3], the “C400 (Ph. Eur.)” value was 0.025.
As for `CC1=C(C(=O)O)N2C(=O)[C@@H](NC(=O)[C@H](N)c3ccccc3)[C@H]2SC1.O` [Example I, cephalexin], the “water content (Karl Fisher)” value in data set [1] turned out to be 5.2 wt. %. This molecule also showed an Acetone content in data set [2] (dried cephalexin product) of 10 mg/kg. The “C400 (Ph. Eur.)” value in data set [3] amounted to 0.026.
